The test deals with mixed suspension (Group 5) of the four test microbe groups. The test can be described thus: Koko test (pack preservation, repeated inoculation challenge) of aqueous working solutions in Ringer's solution. The class given is cell-based. The following applies: for Koko results: microbial growth of streaks, inoculation cycle 1: inoculation cycle 1; Ringer's solution as product; use concentration 0.5% for 1), 0.6% for 2), 2.0% for 3) and 4); for Koko results: microbial growth of streaks, inoculation cycle 2: inoculation cycle 2; Ringer's solution as product; use concentration 0.5% for 1), 0.6% for 2), 2.0% for 3) and 4); for Koko results: microbial growth of streaks, inoculation cycle 3: inoculation cycle 3; Ringer's solution as product; use concentration 0.5% for 1), 0.6% for 2), 2.0% for 3) and 4); for Koko results: microbial growth of streaks, inoculation cycle 4: inoculation cycle 4; Ringer's solution as product; use concentration 0.5% for 1), 0.6% for 2), 2.0% for 3) and 4); for Koko results: microbial growth of streaks, inoculation cycle 5: inoculation cycle 5; Ringer's solution as product; use concentration 0.5% for 1), 0.6% for 2), 2.0% for 3) and 4); for Koko results: microbial growth of streaks, inoculation cycle 6: inoculation cycle 6; Ringer's solution as product; use concentration 0.5% for 1), 0.6% for 2), 2.0% for 3) and 4). The protocol:
Unless expressly stated otherwise, all of the percentages are percentages by weight. Aqueous working solutions were investigated using Ringer's solution as product in the Koko test.
Using the described method, the effectiveness of chemical preservatives (stabilizer compositions) is tested with regard to the pack preservation for cosmetic formulations. For this purpose, the compositions to be investigated are added in varying concentrations to the unstabilized samples in various experimental batches. A continuous microbial burden is achieved by periodically inoculating the experimental batches. In parallel to the inoculation, streaks of each of the individual batches are in each case made immediately beforehand. Assessment is made by reference to the microbial growth of the streaks.
• CSA (casein peptone soya flour peptone agar) • SA (Sabouraud dextrose agar) • SA slant tube • CSA+TLSH (No. 4) • SA-TLSH (No. 10) • NaCl (physiological sodium chloride solution, […]) • TLSH (disinhibiting medium for bacteria=Tween 80+lecithin+saponin+histidine)
The test microbe used was the mixed suspension (Group 5) of the following four test microbe groups.
Cultivation of the Test Microbes • Bacteria: streaking using a sterile glass rod on CS agar • Yeasts: streaking using a sterile glass rod on SA agar • Fungi: Aspergillus niger is transferred to 4 SA slant tubes • Penicillium funiculosum is transferred to SA agar plates
All of the test microbes are incubated for one week at 25° C.±2° C. The test microbes are replaced at intervals of 3 to 4 months.
The bacteria are rinsed off with 5 ml of NaCl solution in each case, filtered through a glass funnel containing glass wool into a 100 ml measuring cylinder and made up to 100 ml with NaCl. The bacterial suspensions have a titre of about 10^9 CFU/ml.
Three Aspergillus niger slant tubes are each shaken with 3 ml of NaCl solution on a Heldolph stirrer and introduced through a glass funnel containing glass wool. The yeast Candida albicans is rinsed off with 5 ml of NaCl and likewise poured through the glass funnel. 5 ml of a Penicillium funiculosum suspension are added to this mixture and made up to 100 ml with NaCl. The fungal suspension has a titre of about 10^5-9 CFU/ml.
The inoculation solution actually used is prepared as described above (Groups 1 to 4). After rinsing off, these are mixed and then made up to 100 ml with NaCl.
The microbial suspension was transferred to sterile glass-stoppered bottles containing glass beads and shaken for 5 min at a shaking frequency (to-and-fro movement) of 200 units/min. The microbial content of the mixed suspension is 10^9 CFU/ml. The suspension should be used on the day of preparation, but can also be used after 24 hours upon storage in a refrigerator.
In separate batches, 25 g of the cosmetic to be tested are mixed in each case with the compositions to be investigated in varying concentrations. The growth control used in each case is an unstabilized product sample. The test batches are streaked onto CSA/TLSH and SA/TLSH once per week following thorough stirring using a sterile glass rod, the first streaking being carried out directly prior to reinoculation. All of the samples are inoculated with 0.1 ml of the respective microbial suspension and thoroughly stirred.
The microbial growth of the streaks is assessed after incubation for three days at 25° C.±2° C. To be on the safe side, negative streaks are observed for a further two days and reassessed. The stabilizing action of the individual product concentration is assessed in a semiqualitative method by means of the growth of the individual streaks.
The test is usually carried out over six inoculation cycles and terminated after massive growth on two occasions.
A composition is considered good if it exists under the laboratory conditions given above for a period of six weeks without microbial attack of the sample batches, i.e. even after the sixth inoculation, no microbial growth can be detected.

SMILES strings stand for the structures.

This is an account of results in patent publication US8841349B2, “Stabilize compositions based on monoalkyl glycerol ethers and aromatic alcohols” (Air Liquide Sante (International), priority 2003, dated 2014).

Regarding `CC1(C)C(=O)N(CO)C(=O)N1CO` [2), dimethyldimethylolhydantoin], the “Koko results: microbial growth of streaks, inoculation cycle 1” value is “+B”; the “Koko results: microbial growth of streaks, inoculation cycle 2” value was “++B”; the “Koko results: microbial growth of streaks, inoculation cycle 3” value is recorded as “++B”; the “Koko results: microbial growth of streaks, inoculation cycle 4” value is reported as “++B”. Moreover, the “Koko results: microbial growth of streaks, inoculation cycle 5” value is “++B” and the “Koko results: microbial growth of streaks, inoculation cycle 6” value is reported as “++B”.

For `O=C([O-])CNCO.[Na+]` [1), sodium hydroxymethyl-glycinate], the “Koko results: microbial growth of streaks, inoculation cycle 1” value is listed as “+Y”; the “Koko results: microbial growth of streaks, inoculation cycle 2” value is “+Y”; the “Koko results: microbial growth of streaks, inoculation cycle 3” value was “+Y”; the “Koko results: microbial growth of streaks, inoculation cycle 4” value is “+Y”. Further, the “Koko results: microbial growth of streaks, inoculation cycle 5” value is on record as “+Y” and the “Koko results: microbial growth of streaks, inoculation cycle 6” value is reported as “+Y”.
